Results published in US5610174A, “Use of α1A -selective adrenoceptor agonists for the treatment of urinary incontinence” (priority 1995, dated 1997).
Like-named read-outs stand apart in the source and are kept apart here.

What was measured:
human α1C adrenoceptor [1] = target: T1, human α1C adrenoceptor (Homo sapiens, UniProt P35348); assay: biochemical; type: binding
T1 sequence (P35348 1-466): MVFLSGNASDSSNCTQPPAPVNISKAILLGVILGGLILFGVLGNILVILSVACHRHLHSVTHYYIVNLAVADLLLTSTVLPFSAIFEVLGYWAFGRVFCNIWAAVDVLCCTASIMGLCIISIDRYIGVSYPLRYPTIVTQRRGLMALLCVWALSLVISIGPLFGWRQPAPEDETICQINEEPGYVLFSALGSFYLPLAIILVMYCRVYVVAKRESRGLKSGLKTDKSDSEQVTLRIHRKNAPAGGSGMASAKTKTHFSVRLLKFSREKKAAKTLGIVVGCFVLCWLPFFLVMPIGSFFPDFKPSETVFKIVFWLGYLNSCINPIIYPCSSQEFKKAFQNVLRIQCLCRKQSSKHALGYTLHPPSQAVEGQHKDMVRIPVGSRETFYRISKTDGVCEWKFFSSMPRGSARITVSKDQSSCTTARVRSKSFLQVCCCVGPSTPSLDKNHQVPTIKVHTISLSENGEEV
Description: (§1) These cell lines were prepared by transfecting the cloned cDNA or cloned genomic DNA or constructs containing both genomic DNA and cDNA encoding the human α-adrenoceptors as follows:
The construct involved ligating three partial overlapping fragments: a 5' 0.6 kb HincII genomic clone, a central 1.8 EcoRI hippocampal cDNA clone, and a 3' 0.6 Kb PstI genomic clone. The hippocampal cDNA fragment overlaps with the 5' and 3' genomic clones so that the HincII and PstI sites at the 5' and 3' ends of the cDNA clone, respectively, were utilized for ligation. This full-length clone was cloned into the KpnI site of the expression vector, using the 5' and 3' KpnI sites of the fragment, derived from vector (i.e., pBluescript) and 3'-untranslated sequences, respectively. Stable cell lines were obtained as described above.
(§2) Transfected cells from culture flasks were scraped into 5 ml of 5 mM Tris-HCl, 5 mM EDTA, pH 7.5, and lysed by sonication. The cell lysates were centrifuged at 1000 rpm. for 5 min at 4° C., and the supernatant was centrifuged at 30,000 ×g for 20 min at 4° C. The pellet was suspended in 50 mM Tris-HCl , 1 mM MgCl2, and 0.1% ascorbic acid at pH 7.5. […] The reaction was stopped by filtration through GF/B filters using a cell harvester.

human α1A adrenoceptor = target: T2, human α1A adrenoceptor (Homo sapiens, UniProt P25100); assay: biochemical; type: binding
T2 sequence (P25100 1-572): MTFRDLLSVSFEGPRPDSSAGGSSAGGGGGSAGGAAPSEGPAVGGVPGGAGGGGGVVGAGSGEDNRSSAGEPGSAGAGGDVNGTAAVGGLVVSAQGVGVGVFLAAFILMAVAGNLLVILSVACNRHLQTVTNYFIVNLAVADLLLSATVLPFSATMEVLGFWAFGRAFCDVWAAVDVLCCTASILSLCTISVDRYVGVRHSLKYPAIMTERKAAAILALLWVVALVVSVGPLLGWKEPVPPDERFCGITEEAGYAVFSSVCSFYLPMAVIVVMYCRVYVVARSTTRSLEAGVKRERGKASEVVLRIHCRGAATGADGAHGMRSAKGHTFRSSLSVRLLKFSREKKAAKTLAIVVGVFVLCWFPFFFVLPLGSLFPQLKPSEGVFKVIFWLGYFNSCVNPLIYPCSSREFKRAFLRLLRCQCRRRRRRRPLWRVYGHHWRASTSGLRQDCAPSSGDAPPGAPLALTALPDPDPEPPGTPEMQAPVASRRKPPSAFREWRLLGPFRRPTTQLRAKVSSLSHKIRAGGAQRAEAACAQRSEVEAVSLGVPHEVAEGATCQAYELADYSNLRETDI
Description: as §1
The cells were grown, in a controlled environment (37° C., 5% CO2), as monolayers in Dulbecco's modified Eagle's Medium (GIBCO, Grand Island, N.Y.) containing 25 mM glucose and supplemented with 10% bovine calf serum, 100 units/ml penicillin g, and 100 μg/ml streptomycin sulfate.
as §2

human α1C adrenoceptor [2] = target: T1, human α1C adrenoceptor; assay: cell-based; type: cell-based; conditions: for Emax: read-out: intrinsic activity (i.a.) α1C
Description: α1 -Adrenoceptor-Mediated Phosphoinositide Accumulation in Cultured Cell Lines
The agonist activity of test compounds was assayed by measuring their ability to generate phosphoinositide production in cells stably transfected with each of the three cloned human α1 -adrenoceptor subtypes. Cells were plated in 96-well plates and grown to confluence. The day before the assay the growth medium was changed to 100 μl of medium containing 1% serum and 0.5 μCi [^3 H] myo-inositol, and the plates were incubated overnight in a CO2 incubator (5% CO2 at 37° C.). Immediately before the assay, the medium was removed and replaced by 200 μl of PBS containing 10 mM LiCl, and the cells were equilibrated with the new medium for 20 min. During this interval cells were also equilibrated with the antagonist, added as 10 μl aliquot of a 20-fold concentrated solution in PBS.
The [^3 H] inositol-phosphate (IP) accumulation was started by adding 10 μl of a solution containing the agonist. To the first well 10 μl were added to measure basal accumulation, and 11 different concentrations of agonist were assayed in the following 11 wells of each plate row. All assays were performed in duplicate by repeating the same additions in two consecutive plate rows. The plates were incubated in a CO2 incubator for 1 hr. The reaction was terminated by adding 15 μl of 50% (v/v) trichloroacetic acid (TCA), followed by a 40 min incubation at 4° C.
After neutralizing TCA with 40 μl of 1 M Tris, the content of the wells was transferred to a Multiscreen HV filter plate (Millipore) containing Dowex AG1-X8 (200-400 mesh, formate form). The filter plates were prepared adding 200 μl of Dowex AG1-X8 suspension (50% v/v, water:resin) to each well. The filter plates were placed on a vacuum manifold to wash or eluted the resin bed. Each well was washed 2 times with 200 μl of water, followed by 2×200 μ of 5 mM sodium tetraborate/60 mM ammonium formate. The [3H] IPs were eluted into empty 96-well plates with 200 μl of 1.2 M ammonium formate/0.1 formic acid. The content of the wells was added to 3 mls of scintillation cocktail, and the radioactivity was determined by liquid scintillation counting.

[3] = agonist, phosphoinositide accumulation, read-out: pEC50 α1C (converted)
[4] = relative to reference full agonist (e.g., norepinephrine = unity)
[5] = Table 3, agonists, read-out: pKi α1A (converted)
[6] = Table 2, antagonists, versus 3H-prazosin

Structure (SMILES): C[C@H](N)[C@H](O)c1ccccc1 [(-)-norephedrine]
- Ki (human α1C adrenoceptor [1]): 15.8 µM
- Ki (human α1A adrenoceptor): 25.1 µM
- EC50 (human α1C adrenoceptor [2]; [3]): 50.1 µM
- Emax (human α1C adrenoceptor [2]; [4]): 40%

Structure (SMILES): CN[C@@H](C)[C@H](O)c1ccccc1 [(-)-ephedrine]
- Ki (human α1C adrenoceptor [1]): 25.1 µM
- Ki (human α1A adrenoceptor): 50.1 µM
- EC50 (human α1C adrenoceptor [2]; [3]): 100 µM
- Emax (human α1C adrenoceptor [2]; [4]): 10%

Structure (SMILES): CS(=O)(=O)Nc1c(O)ccc2c1CCCC2C1=NCCN1 (racemic) [Compound A-61603, (±)-N-[5-(4,5-Dihydro-1H-imidazol-2-yl)-2-hydroxy-5,6,7,8-tetra-hydronaphthalen-1-yl]methanesulfonamide]
- Ki (human α1A adrenoceptor; [5]): 12.6 µM
- Emax (human α1C adrenoceptor [2]; [4]): 120%
- stimulation of inositol phosphate production, α1C (human α1C adrenoceptor [2]; result in words): fully stimulate

Structure (SMILES): COc1ccccc1N1CCN(CCCNc2c(C)c(=O)n(C)c(=O)n2C)CC1 [Compound 5-MU]
- Ki (human α1C adrenoceptor [1]; Table 2, antagonists, versus 3H-prazosin, read-out: pKI (antagonist affinity, 3H-prazosin binding) hα1C (converted)): 0.002 µM
- Ki (human α1A adrenoceptor; Table 2, antagonists, versus 3H-prazosin, read-out: pKI (antagonist affinity, 3H-prazosin binding) hα1A (converted)): 0.0158 µM

Structure (SMILES): COc1cc2c(cc1OC)CN(c1cc(N)c3cc(OC)c(OC)cc3n1)CC2 [Abanoquil, 2-(6,7-Dimethoxy-3,4-dihydro-1H-isoquinolin-2-yl)-6,7-dimethoxyquinolin-4-ylamine hemifumarate hydrate]
- pKI (antagonist affinity, 3H-prazosin binding) hα1C (human α1C adrenoceptor [1]; [6]): 10.4
- pKI (antagonist affinity, 3H-prazosin binding) hα1A (human α1A adrenoceptor; [6]): 10.4

Structure (SMILES): COc1ccc(SC)c2c1C[C@@H]1[C@@H](C2)OCCN1C (relative stereo) [SDZ NVI-085, (±)-trans-4-Methyl-6-methoxy-9-thiomethoxy-3,4,4a, 5,10,10a-hexahydro-2H-naphtho[2,3-b][1,4]oxazine]
- Ki (human α1C adrenoceptor [1]; Table 3, agonists, read-out: pKi α1C (converted)): 1.26 µM
- Ki (human α1A adrenoceptor; [5]): 2 µM
- EC50 (human α1C adrenoceptor [2]; [3]): 0.398 µM
- Emax (human α1C adrenoceptor [2]; [4]): 110%

Structure (SMILES): COc1ccc(OC)c(C(O)CN)c1 (racemic) [ST-1059, (±)-2-Amino-1-(2, 5 dimethoxyphenyl) ethanol]
- Ki (human α1C adrenoceptor [1]): 7.94 µM
- Ki (human α1A adrenoceptor): 7.94 µM
- EC50 (human α1C adrenoceptor [2]): 2 µM
- Emax (human α1C adrenoceptor [2]; [4]): 90%

Structure (SMILES): CNCCc1ccc(O)c(NS(C)(=O)=O)c1 [SK&F 102652]
- stimulation of inositol phosphate production, α1C (human α1C adrenoceptor [2]): fully stimulate
- Emax (human α1C adrenoceptor [2]): 110%

Structure (SMILES): CNC[C@H](O)c1cccc(O)c1 [(-)-phenylephrine]
- Ki (human α1A adrenoceptor): 3.98 µM
- Emax (human α1C adrenoceptor [2]; [4]): 90%
